# From patent publication US8420606B2, “Method of utilizing physiological activity of rare saccharide and composition containing rare saccharide” (priority 2002, dated 2013)
# “Also recorded” adds a separate entry of the source.
# Columns and labels:
# [1] = tested on: uterine cancer cells (He1a); assay: proliferation of cultured cells, MTT method, He1a; format: cell-based, human; details: saccharide 50 mM, 4 to 5 days
# Method: Various kinds of rare saccharides were added at a concentration of 50 mM to culture media under the following conditions, and an influence of each rare saccharide upon the progress of proliferation of cancer cell strains was examined.
# (1) Target cells to which the rare saccharides were added: Hepatic cancer cells (HepG2), uterine cancer cells (He1a), ovary cancer cells (OVCAR3), and skin keratinocyte (HaCaT) were selected as target cells to which the rare saccharides were added.
# (2) Rare saccharides added: In addition to D-allose, glucose and D-altros as rare saccharides belonging to ketose were added, as other comparative saccharides, to the addition target cells. Also, D-fructose was employed as a control.
# (3) Experiment method: A number 3,000-5,000 of addition target cells per type were inoculated into a multi-well plastic dish (hereinafter referred to as a “well”) having 96 wells, and were cultured for 4 to 5 days in a culture medium supplemented with 5 to 10% of Fetal Bovine Serum (FBS) depending on the cell types. […] To examine the influence upon the cell proliferation, the cell number was measured in units of 24 hours by using the MTT method described below. […]
# (2) Test method: The cells were treated with TEP to prepare a cell suspension liquid. […] The absorbance of the liquid was measured at a wavelength of 570 to 600 nm by using a spectrophotometer. […]
# [2] = tested on: THP-1; assay: blood-system cancer cell strain proliferation, Coulter Counter, THP1; format: cell-based; details: 0.05-50 mM, 7 days, D-glucose control
# Method: (§1) (2) Method: Total 6 kinds of cell strains, i.e., Myeloid (HL-60, THP-1, KG-1), T-cell (MT-2), and B-Cell (Daudi, KS-1), and 3 kinds of rare saccharides (i.e., D-psicose, D-altrose, and D-allose), were employed. The culture medium and the cells were prepared to be 1 mL in total and 1×10^5 in number, respectively. Then, the cell number at each of fourth day and seventh day was counted by using a Coulter Counter. Each rare saccharide was added at concentrations of 0.05, 0.5, 5 and 50 mM, while D-glucose was used as a control.
# (§2) Culture Medium: FBS 10% added RPMI1460
# (§3) Cultivation Conditions: 37° C., 5% CO2
# (§4) Cultivation Vessel: FALCON, MULTIWELL, 12 wells
# (§5) Number of Cultivation Days: 7 days
# (§6) Saccharides Concentration: 0.05, 0.5, 5, 50 mM
# [3] = tested on: KS-1; assay: blood-system cancer cell strain proliferation, Coulter Counter, KS1; format: cell-based; details: 0.05-50 mM, 7 days, D-glucose control
# Method: as §1, §2, §3, §4, §5, §6
# [4] = tested on: KG-1; assay: blood-system cancer cell strain proliferation, Coulter Counter, KG1; format: cell-based; details: 0.05-50 mM, 7 days, including the control
# Method: as §1, §2, §3, §4, §5, §6
# [5] = tested on: glutamate release from hippocampus; assay: temporary brain ischemia, glutamate outside hippocampus neurons by micro-dialysis; format: in vivo, gerbil
# Method: (2) Method: The bilateral common carotid artery of a gerbil was shut off for 5 minutes. After 1 week, the gerbil was sacrificed and a sample was prepared in accordance with the ordinary method, followed by hematoxyline eosin dyeing. The survival rate was measured by counting the number of hippocampus neurons while looking at them under a microscope. Experiments were performed on a normal control group, a group subjected to only ischemia, and a group administrated with 200 mg/kg of D-allose or D-psicose before ischemia. It is known that glutamates released in large amount from the neurons with ischemia are toxic to the neurons. Such a point was examined by fixing the gerbil to a brain position fixing device, perfusing a solution, in which oxidase glutamate is dissolved, to the hippocampus through a probe for micro-dialysis, and measuring the glutamate concentration outside the hippocampus neurons. Also, the inventors have clarified the relationship between the metabolism of glucose and the action mechanism of D-allose with ischemia by pre-administrating D-allose and 2-deoxiglucose.
smiles,measurement,setting,value
O=C[C@H](O)[C@H](O)[C@H](O)[C@H](O)CO [D-allose],proliferation of He1a cells (cell number over time),[1],strongly inhibited proliferation; also recorded: has a proliferation inhibitory effect
same,THP1 proliferation inhibitory effect,[2],showed a cell proliferation inhibitory effect at 59 mM
same,KS1 proliferation inhibitory effect,[3],having the inhibitory effect
same,KS1 proliferation inhibitory effect,[3]; listed as allose,showed a cell proliferation inhibitory effect at 59 mM
same,KG1 proliferation inhibitory effect,[4],having the inhibitory effect
same,inhibition rate of second peak of glutamate release (hyperperfusion after ischemia),[5]; administration of D-allose,about 90%
same,inhibition rate of first peak of glutamate release (with ischemia),[5]; pre-administration of D-allose,about 25%
